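Briefly, cells in 96-well plates were exposed to five compound concentrations for 48 h, and endpoints were estimated by linear interpolation. GI50 is the concentration that inhibits growth by half. The concentration for full growth arrest is given as TGI.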
Assays:
Assay in all cases: NCI-60 cell line screen, 48 h
[1] = tested on: RPMI-8226 leukemia
[2] = tested on: 786-0 renal
[3] = tested on: SK-MEL-2 melanoma
[4] = tested on: NCI/ADR-RES ovarian
[5] = tested on: NCI-H460 lung
[6] = tested on: MDA-MB-435
[7] = tested on: SNB-19 CNS
[8] = tested on: CCRF-CEM leukemia
[9] = tested on: SNB-75 CNS
[10] = tested on: MALME-3M melanoma

SMILES	GI50 [1] [µM]	TGI [1] [µM]	GI50 [2] [µM]	TGI [2] [µM]	GI50 [3] [µM]	TGI [3] [µM]	GI50 [4] [µM]	TGI [4] [µM]	GI50 [5] [µM]	TGI [5] [µM]	GI50 [6] [µM]	TGI [6] [µM]	GI50 [7] [µM]	TGI [7] [µM]	GI50 [8] [µM]	TGI [8] [µM]	TGI [9] [µM]	GI50 [9] [µM]	GI50 [10] [µM]	TGI [10] [µM]
C=C(CN(CCN1CCOCC1)CC(=C)c1ccc(C(=O)Nc2ccccc2N)cc1)c1ccc(C(=O)Nc2ccccc2N)cc1	2.68	> 50	1.07	6.65	11.1	> 50	1.31	4.92	8.72	> 50	8.67	28.5	9.18	33.4	–	–	–	–	–	–
CN(C)CCC(=O)NCc1c2nc3ccccc3nc2n2ccccc12	18.5	> 100	19	45.9	48.1	> 100	47.2	> 100	42.5	> 100	67.8	> 100	52.9	> 100	25.7	78.8	–	–	–	–
CCC(C)c1cnc(CC(C)C)c(=O)[nH]1 (stereo unspecified)	–	> 100	–	> 100	–	> 100	–	–	–	> 100	–	> 100	–	> 100	–	> 100	> 100	–	–	–
NCCCn1c2c(c3ccc([N+](=O)[O-])cc3c1=O)C(=O)c1cc(Cl)ccc1-2	< 0.01	0.0367	< 0.01	0.0369	0.113	0.275	< 0.01	0.292	< 0.01	0.128	–	–	< 0.01	0.227	< 0.01	0.0104	1.2	< 0.01	< 0.01	0.195
CN(C(=O)C1CC1)C1C2CN3CCC(O2)C13 (stereo unspecified)	–	> 100	–	> 100	–	> 100	–	–	–	> 100	–	–	–	> 100	–	> 100	> 100	–	–	> 100
C=CC[C@@]1(C#N)C[C@H](C[C@]2(C#N)C[C@H](CCl)OC(C)(C)O2)OC(C)(C)O1	–	> 100	–	> 100	–	> 100	–	–	–	> 100	–	–	–	> 100	–	> 100	> 100	–	–	> 100
NC(=O)C12CCC1C1CCCCC12N1CCOCC1 (stereo unspecified)	–	> 100	–	> 100	–	> 100	–	–	–	> 100	–	–	–	> 100	–	> 100	> 100	–	–	> 100
ClC1=C(Cl)C(Cl)=C(Cl)C1=Cc1ccc(Cl)cc1Cl	0.355	1.99	0.241	0.618	1.51	4.49	0.276	0.926	–	–	0.521	2.05	0.811	2.93	0.352	3.98	5.51	1.9	–	–
CC(=O)Oc1cc(OC(C)=O)c2cc3c(cc2c1OC(C)=O)C(=O)C1(CCCC1)C3=O	–	4.89	–	31.5	–	–	–	–	–	33.1	–	–	–	–	–	–	30	–	–	33.6

Source: PubChem BioAssay (NCI)
